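Values below derive from 48-hour exposures of cells grown in 96-well plates, with endpoints linearly interpolated between the two concentrations bracketing the appropriate inhibition level. GI50 = concentration required for 50% inhibition of growth. TGI marks complete inhibition of growth.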
What was measured:
Assay in all cases: NCI tumour cell line growth inhibition, 48 h; in the data active = GI50 below about 0.43 µM; inactive = the rest
[1] = test system: 786-0 renal
[2] = test system: A498 renal
[3] = test system: A549 NSCLC
[4] = test system: ACHN renal
[5] = test system: BT-549 breast
[6] = test system: CAKI-1 renal
[7] = test system: CCRF-CEM leukemia
[8] = test system: COLO 205 colon
[9] = test system: DU-145 prostate
[10] = test system: EKVX NSCLC
[11] = test system: HCC-2998 colon
[12] = test system: HCT-116 colon
[13] = test system: HCT-15 colon
[14] = test system: HL-60(TB) leukemia
[15] = test system: HOP-62 NSCLC
[16] = test system: HOP-92 NSCLC
[17] = test system: HT29 colon
[18] = test system: IGROV1 ovarian
[19] = test system: K-562 leukemia
[20] = test system: KM12 colon
[21] = test system: LOX IMVI melanoma
[22] = test system: M14 melanoma
[23] = test system: MALME-3M melanoma
[24] = test system: MCF7 breast
[25] = test system: MDA-MB-231 breast
[26] = test system: MDA-MB-435
[27] = test system: MDA-MB-468 breast
[28] = test system: MOLT-4 leukemia
[29] = test system: NCI-H226 lung
[30] = test system: NCI-H23 lung
[31] = test system: NCI-H460 lung
[32] = test system: NCI-H522 lung
[33] = test system: NCI/ADR-RES ovarian
[34] = test system: OVCAR-3 ovarian
[35] = test system: OVCAR-4 ovarian
[36] = test system: OVCAR-5 ovarian
[37] = test system: OVCAR-8 ovarian
[38] = test system: PC-3 prostate
[39] = test system: RPMI-8226 leukemia
[40] = test system: RXF 393 renal
[41] = test system: SF-268 CNS
[42] = test system: SF-295 CNS
[43] = test system: SF-539 CNS
[44] = test system: SK-MEL-2 melanoma
[45] = test system: SK-MEL-28 melanoma
[46] = test system: SK-MEL-5 melanoma
[47] = test system: SK-OV-3 ovarian
[48] = test system: SN12C renal
[49] = test system: SNB-19 CNS
[50] = test system: SNB-75 CNS
[51] = test system: SR leukemia
[52] = test system: SW-620 colon
[53] = test system: T-47D breast
[54] = test system: TK-10 renal
[55] = test system: U251 CNS
[56] = test system: UACC-257 melanoma
[57] = test system: UACC-62 melanoma
[58] = test system: UO-31 renal

Oc1ccc(Cl)c(Nc2nc(SCCN3CCOCC3)nc3c2cnn3CC(Cl)c2ccc(Br)cc2)c1 (stereo unspecified)
24.5 µM: TGI [17]
42.3 µM: TGI [8]
10.3 µM: TGI [18]
active: GI50 [19] 0.378 µM
54.7 µM: TGI [54]
24 µM: TGI [57]
36.9 µM: TGI [44]
9.21 µM: TGI [16]
84.6 µM: TGI [36]
6.13 µM: TGI [50]
17.3 µM: TGI [25]
19.1 µM: TGI [42]
> 100 µM: TGI [2] | TGI [4] | TGI [5] | TGI [6] | TGI [7] | TGI [9] | TGI [10] | TGI [12] | TGI [13] | TGI [14] | TGI [15] | TGI [19] | TGI [20] | TGI [22] | TGI [24] | TGI [26] | TGI [28] | TGI [29] | TGI [31] | TGI [32] | TGI [33] | TGI [34] | TGI [35] | TGI [37] | TGI [38] | TGI [39] | TGI [41] | TGI [43] | TGI [45] | TGI [47] | TGI [48] | TGI [49] | TGI [51] | TGI [52] | TGI [53] | TGI [55] | TGI [56] | TGI [58]
4.77 µM: TGI [40]
93.3 µM: TGI [1]
15.2 µM: TGI [46]
25.4 µM: TGI [11]
inactive: GI50 [1] 15.4 µM | GI50 [2] 12.1 µM | GI50 [3] 4.75 µM | GI50 [4] 3.62 µM | GI50 [5] 26.3 µM | GI50 [6] 6.63 µM | GI50 [7] 3.17 µM | GI50 [8] 18.6 µM | GI50 [9] 6.33 µM | GI50 [10] 4.64 µM | GI50 [11] 4.1 µM | GI50 [12] 3.83 µM | GI50 [13] 3.27 µM | GI50 [14] 6.62 µM | GI50 [15] 6.24 µM | GI50 [16] 2.57 µM | GI50 [17] 6.22 µM | GI50 [18] 2.82 µM | GI50 [20] 5.83 µM | GI50 [21] 2.97 µM | GI50 [22] 4.49 µM | GI50 [23] 3.7 µM | GI50 [24] 2.93 µM | GI50 [25] 3.77 µM | GI50 [26] 4.64 µM | GI50 [27] 2.2 µM | GI50 [28] 3.53 µM | GI50 [29] 5.06 µM | GI50 [30] 8.67 µM | GI50 [31] 4.12 µM | GI50 [32] 2.92 µM | GI50 [33] 3.37 µM | GI50 [34] 5.5 µM | GI50 [35] 4.91 µM | GI50 [36] 7.08 µM | GI50 [37] 3.89 µM | GI50 [38] 3.08 µM | GI50 [39] 3.54 µM | GI50 [40] 1.11 µM | GI50 [41] 4.34 µM | GI50 [42] 3.1 µM | GI50 [43] 4.43 µM | GI50 [44] 10.1 µM | GI50 [45] 6.03 µM | GI50 [46] 3.95 µM | GI50 [47] 17.1 µM | GI50 [48] 3.17 µM | GI50 [49] 8.16 µM | GI50 [50] 1.39 µM | GI50 [51] 12.8 µM | GI50 [52] 11.3 µM | GI50 [53] 2.88 µM | GI50 [54] 18.2 µM | GI50 [55] 5.75 µM | GI50 [56] 13.7 µM | GI50 [57] 5.44 µM | GI50 [58] 2.04 µM
10.9 µM: TGI [21]
47.9 µM: TGI [30]
54.1 µM: TGI [3]
6.28 µM: TGI [27]
19.9 µM: TGI [23]

Source: PubChem BioAssay (NCI)
